What was measured:
[1] = target: T1, Asuc_0142 (DcuAAs) (Actinobacillus succinogenes, UniProt A6VKM5); test: inhibition of […] min […]fumarate uptake, E. coli IMW529 cells; assay type: cell-based; details: read-out: % inhibition at 1 mM
T1 construct: full-length gene from 130Z genomic DNA in pBAD30-derived pMB61 (pMB147), expressed in E. coli IMW529 lacking DcuA, DcuB, DcuC, TtdT and CitT

[2] = target: T1, Asuc_0142 (DcuAAs); test: as above; assay type: cell-based; details: 100 µM [14C]fumarate; anaerobic, pH 7, 37 °C

Row | inhibition at 1000 µM [1] | Compound | % inhibition at 1 mM [2]
1 | 95% | N[C@@H](CC(=O)O)C(=O)O [L-aspartate] | 
2 |  | O=C(O)C[C@H](O)C(=O)O [L-malate] | the inhibition by succinate and L-malate was only moderate
3 | 82% | O=C(O)/C=C/C(=O)O [fumarate] | 
4 |  | O=C(O)CCC(=O)O [succinate] | the inhibition by succinate and L-malate was only moderate

Reference: PMC10634366 (Microbiology, 2023)
